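Where inhibition never reached the appropriate level, the endpoint shown equals the highest concentration tested. Otherwise, values were interpolated linearly from a five-concentration, 48-hour dose response in 96-well plates. The concentration for full growth arrest is given as TGI.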
Experiments:
Assay in all cases: inhibition of tumour cell growth, NCI panel, 48 h
786-0 renal = tested on: 786-0 renal
A498 renal = tested on: A498 renal
A549 NSCLC = tested on: A549 NSCLC
ACHN renal = tested on: ACHN renal
BT-549 breast = tested on: BT-549 breast
CAKI-1 renal = tested on: CAKI-1 renal
CCRF-CEM leukemia = tested on: CCRF-CEM leukemia
COLO 205 colon = tested on: COLO 205 colon
DU-145 prostate = tested on: DU-145 prostate
EKVX NSCLC = tested on: EKVX NSCLC
HCC-2998 colon = tested on: HCC-2998 colon
HCT-116 colon = tested on: HCT-116 colon
HCT-15 colon = tested on: HCT-15 colon
HOP-62 NSCLC = tested on: HOP-62 NSCLC
HOP-92 NSCLC = tested on: HOP-92 NSCLC
HS 578T breast = tested on: HS 578T breast
HT29 colon = tested on: HT29 colon
IGROV1 ovarian = tested on: IGROV1 ovarian
K-562 leukemia = tested on: K-562 leukemia
KM12 colon = tested on: KM12 colon
LOX IMVI melanoma = tested on: LOX IMVI melanoma
M14 melanoma = tested on: M14 melanoma
MCF7 breast = tested on: MCF7 breast
MDA-MB-231 breast = tested on: MDA-MB-231 breast
MDA-MB-435 = tested on: MDA-MB-435
MDA-N = tested on: MDA-N
MOLT-4 leukemia = tested on: MOLT-4 leukemia
NCI-H226 lung = tested on: NCI-H226 lung
NCI-H23 lung = tested on: NCI-H23 lung
NCI-H460 lung = tested on: NCI-H460 lung
NCI-H522 lung = tested on: NCI-H522 lung
NCI/ADR-RES ovarian = tested on: NCI/ADR-RES ovarian
OVCAR-3 ovarian = tested on: OVCAR-3 ovarian
OVCAR-4 ovarian = tested on: OVCAR-4 ovarian
OVCAR-5 ovarian = tested on: OVCAR-5 ovarian
OVCAR-8 ovarian = tested on: OVCAR-8 ovarian
PC-3 prostate = tested on: PC-3 prostate
RPMI-8226 leukemia = tested on: RPMI-8226 leukemia
RXF 393 renal = tested on: RXF 393 renal
SF-268 CNS = tested on: SF-268 CNS
SF-295 CNS = tested on: SF-295 CNS
SF-539 CNS = tested on: SF-539 CNS
SK-MEL-2 melanoma = tested on: SK-MEL-2 melanoma
SK-MEL-28 melanoma = tested on: SK-MEL-28 melanoma
SK-MEL-5 melanoma = tested on: SK-MEL-5 melanoma
SK-OV-3 ovarian = tested on: SK-OV-3 ovarian
SN12C renal = tested on: SN12C renal
SNB-19 CNS = tested on: SNB-19 CNS
SR leukemia = tested on: SR leukemia
SW-620 colon = tested on: SW-620 colon
T-47D breast = tested on: T-47D breast
TK-10 renal = tested on: TK-10 renal
U251 CNS = tested on: U251 CNS
UACC-257 melanoma = tested on: UACC-257 melanoma
UACC-62 melanoma = tested on: UACC-62 melanoma
UO-31 renal = tested on: UO-31 renal
HL-60(TB) leukemia = tested on: HL-60(TB) leukemia
MALME-3M melanoma = tested on: MALME-3M melanoma
SNB-75 CNS = tested on: SNB-75 CNS

Clc1ccc(-c2ccc(-c3nnc(CCc4nnc(-c5ccc(-c6ccc(Cl)cc6)o5)o4)o3)o2)cc1
TGI (786-0 renal): > 100 µM | TGI (A498 renal): > 92.2 µM | TGI (A549 NSCLC): > 100 µM | TGI (ACHN renal): > 100 µM | TGI (BT-549 breast): > 100 µM | TGI (CAKI-1 renal): > 100 µM | TGI (CCRF-CEM leukemia): 16.9 µM | TGI (COLO 205 colon): > 100 µM | TGI (DU-145 prostate): > 100 µM | TGI (EKVX NSCLC): > 100 µM | TGI (HCC-2998 colon): > 100 µM | TGI (HCT-116 colon): > 100 µM | TGI (HCT-15 colon): > 100 µM | TGI (HOP-62 NSCLC): > 100 µM | TGI (HOP-92 NSCLC): > 64.1 µM | TGI (HS 578T breast): 86 µM | TGI (HT29 colon): > 100 µM | TGI (IGROV1 ovarian): > 100 µM | TGI (K-562 leukemia): > 61.2 µM | TGI (KM12 colon): > 100 µM | TGI (LOX IMVI melanoma): > 100 µM | TGI (M14 melanoma): > 100 µM | TGI (MCF7 breast): > 100 µM | TGI (MDA-MB-231 breast): > 100 µM | TGI (MDA-MB-435): > 100 µM | TGI (MDA-N): > 100 µM | TGI (MOLT-4 leukemia): > 45.3 µM | TGI (NCI-H226 lung): > 100 µM | TGI (NCI-H23 lung): > 100 µM | TGI (NCI-H460 lung): > 100 µM | TGI (NCI-H522 lung): > 100 µM | TGI (NCI/ADR-RES ovarian): > 100 µM | TGI (OVCAR-3 ovarian): > 100 µM | TGI (OVCAR-4 ovarian): > 100 µM | TGI (OVCAR-5 ovarian): > 100 µM | TGI (OVCAR-8 ovarian): > 100 µM | TGI (PC-3 prostate): > 100 µM | TGI (RPMI-8226 leukemia): > 100 µM | TGI (RXF 393 renal): > 56 µM | TGI (SF-268 CNS): > 100 µM | TGI (SF-295 CNS): > 100 µM | TGI (SF-539 CNS): > 100 µM | TGI (SK-MEL-2 melanoma): > 100 µM | TGI (SK-MEL-28 melanoma): > 100 µM | TGI (SK-MEL-5 melanoma): > 100 µM | TGI (SK-OV-3 ovarian): > 90.4 µM | TGI (SN12C renal): > 100 µM | TGI (SNB-19 CNS): > 100 µM | TGI (SR leukemia): 5.5 µM | TGI (SW-620 colon): > 100 µM | TGI (T-47D breast): > 100 µM | TGI (TK-10 renal): > 86 µM | TGI (U251 CNS): > 100 µM | TGI (UACC-257 melanoma): > 100 µM | TGI (UACC-62 melanoma): > 100 µM | TGI (UO-31 renal): > 100 µM

O=C1C=CC2CCC1C2 (stereo unspecified)
TGI (786-0 renal): > 100 µM | TGI (A498 renal): > 100 µM | TGI (A549 NSCLC): > 100 µM | TGI (ACHN renal): > 100 µM | TGI (BT-549 breast): 73.3 µM | TGI (CAKI-1 renal): > 100 µM | TGI (CCRF-CEM leukemia): > 100 µM | TGI (COLO 205 colon): > 100 µM | TGI (DU-145 prostate): > 100 µM | TGI (EKVX NSCLC): > 100 µM | TGI (HCC-2998 colon): 89.9 µM | TGI (HCT-116 colon): > 100 µM | TGI (HCT-15 colon): > 100 µM | TGI (HL-60(TB) leukemia): > 100 µM | TGI (HOP-62 NSCLC): > 100 µM | TGI (HS 578T breast): 80.4 µM | TGI (HT29 colon): > 100 µM | TGI (IGROV1 ovarian): > 100 µM | TGI (K-562 leukemia): > 100 µM | TGI (KM12 colon): > 100 µM | TGI (LOX IMVI melanoma): > 100 µM | TGI (M14 melanoma): > 100 µM | TGI (MALME-3M melanoma): > 100 µM | TGI (MCF7 breast): > 100 µM | TGI (MDA-MB-231 breast): > 100 µM | TGI (MDA-MB-435): 61.5 µM | TGI (MDA-N): > 100 µM | TGI (MOLT-4 leukemia): > 100 µM | TGI (NCI-H226 lung): 98.5 µM | TGI (NCI-H23 lung): > 100 µM | TGI (NCI-H460 lung): > 100 µM | TGI (NCI-H522 lung): 65.9 µM | TGI (NCI/ADR-RES ovarian): > 100 µM | TGI (OVCAR-3 ovarian): > 100 µM | TGI (OVCAR-5 ovarian): 61.6 µM | TGI (OVCAR-8 ovarian): > 100 µM | TGI (PC-3 prostate): > 100 µM | TGI (RPMI-8226 leukemia): > 100 µM | TGI (SF-268 CNS): 58.6 µM | TGI (SF-295 CNS): > 100 µM | TGI (SF-539 CNS): 90.2 µM | TGI (SK-MEL-2 melanoma): > 100 µM | TGI (SK-MEL-28 melanoma): 89.9 µM | TGI (SK-MEL-5 melanoma): > 100 µM | TGI (SK-OV-3 ovarian): 72.4 µM | TGI (SN12C renal): > 100 µM | TGI (SNB-19 CNS): 96.3 µM | TGI (SNB-75 CNS): > 100 µM | TGI (SW-620 colon): > 100 µM | TGI (T-47D breast): > 100 µM | TGI (TK-10 renal): > 100 µM | TGI (U251 CNS): > 100 µM | TGI (UACC-257 melanoma): > 100 µM | TGI (UACC-62 melanoma): > 100 µM | TGI (UO-31 renal): > 100 µM

O=C(O)c1ccccc1.[Ag]
TGI (786-0 renal): 32.7 µM | TGI (A498 renal): 36.8 µM | TGI (A549 NSCLC): > 58.7 µM | TGI (ACHN renal): 19.1 µM | TGI (BT-549 breast): 64.9 µM | TGI (CAKI-1 renal): 9.89 µM | TGI (COLO 205 colon): 4.12 µM | TGI (DU-145 prostate): 32.1 µM | TGI (EKVX NSCLC): 55.4 µM | TGI (HCC-2998 colon): 37 µM | TGI (HCT-116 colon): 46.3 µM | TGI (HCT-15 colon): 49.5 µM | TGI (HL-60(TB) leukemia): > 42 µM | TGI (HOP-62 NSCLC): 46.3 µM | TGI (HOP-92 NSCLC): 41.3 µM | TGI (HS 578T breast): > 71.9 µM | TGI (HT29 colon): 43.7 µM | TGI (IGROV1 ovarian): 30.6 µM | TGI (K-562 leukemia): > 26.4 µM | TGI (KM12 colon): 47.3 µM | TGI (LOX IMVI melanoma): > 66.6 µM | TGI (M14 melanoma): 36 µM | TGI (MALME-3M melanoma): 3.25 µM | TGI (MCF7 breast): 36.5 µM | TGI (MDA-MB-435): 31.7 µM | TGI (MDA-N): 19.2 µM | TGI (MOLT-4 leukemia): > 21.7 µM | TGI (NCI-H226 lung): > 100 µM | TGI (NCI-H23 lung): 54.5 µM | TGI (NCI-H460 lung): 30.1 µM | TGI (NCI/ADR-RES ovarian): > 100 µM | TGI (OVCAR-3 ovarian): 28.5 µM | TGI (OVCAR-4 ovarian): 29.9 µM | TGI (OVCAR-5 ovarian): 45.1 µM | TGI (OVCAR-8 ovarian): > 72.7 µM | TGI (PC-3 prostate): 29.8 µM | TGI (RPMI-8226 leukemia): > 23.5 µM | TGI (RXF 393 renal): 35.9 µM | TGI (SF-268 CNS): 50.1 µM | TGI (SF-295 CNS): > 100 µM | TGI (SF-539 CNS): 45.4 µM | TGI (SK-MEL-2 melanoma): 30.2 µM | TGI (SK-MEL-28 melanoma): 32.4 µM | TGI (SK-MEL-5 melanoma): 19.5 µM | TGI (SK-OV-3 ovarian): 31.2 µM | TGI (SN12C renal): 51 µM | TGI (SNB-19 CNS): > 100 µM | TGI (SNB-75 CNS): 11.3 µM | TGI (SR leukemia): > 100 µM | TGI (T-47D breast): 5.28 µM | TGI (TK-10 renal): 19.6 µM | TGI (U251 CNS): 35.4 µM | TGI (UACC-257 melanoma): 10.2 µM | TGI (UACC-62 melanoma): 32.3 µM | TGI (UO-31 renal): 7.17 µM

Reference: PubChem BioAssay (NCI)
